Laboratory results from US20240208969A1, “SUBSTITUTED FUSED BICYCLIC COMPOUNDS AS PARP INHIBITORS AND THE USE THEREOF” (IMPACT THERAPEUTICS (SHANGHAI), INC., priority 2021, published 2024).

Columns and labels:
PARP1 = PARP1 (Homo sapiens, UniProt P09874); test: PARP1 chemiluminescent assay; type: biochemical; details: recombinant PARP1 enzyme activity, chemiluminescence
Experimental: (§1) Mix the solution of recombinant poly ADP ribotransferase 1 and 2 (PARP1 and PARP2) (40 ng enzyme/well) and the compounds to be tested, respectively. And then added to a 96-well plate coated with […] mixture, incubated at room temperature for 1 h. Then add 50 μL 0.3 ng/mL Streptavidin-HRP to each well. The plates were incubated for 30 minutes at room temperature. Finally, the plates were treated with streptavidin-HRP followed by addition of the ELISA ECL substrate to produce chemiluminescence that can then be measured using a chemiluminescence reader. The inhibition rate of the compound to PARP1/2 enzyme activity was calculated according to the following formula. [formula] IC50 value is obtained by fitting the s-shaped dose response curve equation by using XL Fit software. The curve equation is Y=100/(1+10^(log C−log IC50)), C is the compound concentration. Table 1 summarizes the inhibitory effects of compounds on PARP1 and PARP2 enzyme activity (IC50), wherein +++++ indicates IC50≤1 nM; ++++ indicates 1<IC50≤10 nM; +++ indicates 10 nM<IC50≤100 nM: ++ indicates 100 nM<IC50≤1 μM; + indicates IC50>1 μM.

PARP2 = PARP2 (Homo sapiens, UniProt Q9UGN5); test: PARP2 chemiluminescent assay; type: biochemical; details: recombinant PARP2 enzyme activity, chemiluminescence
Experimental: as §1

MDA-MB-436 cells = test: Inhibition of proliferation of human breast cancer MDA-MB-436 cell line (CCK-8, 7 days); type: cell-based; details: Homo sapiens, 168 h, proliferation of MDA-MB-436, 7 days
Procedure, shortened: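 Cells seeded at 3000/well were treated next day with 8 serial doses (DMSO control) for 7 days at 37° C., 5% CO2, with compound medium changed on day four. CCK-8 was added for 4 hours and OD read as 450 nm minus 650 nm. IC50 came from a sigmoidal fit of survival relative to DMSO.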

Sequence of PARP2 (Q9UGN5 whole entry, species assumed): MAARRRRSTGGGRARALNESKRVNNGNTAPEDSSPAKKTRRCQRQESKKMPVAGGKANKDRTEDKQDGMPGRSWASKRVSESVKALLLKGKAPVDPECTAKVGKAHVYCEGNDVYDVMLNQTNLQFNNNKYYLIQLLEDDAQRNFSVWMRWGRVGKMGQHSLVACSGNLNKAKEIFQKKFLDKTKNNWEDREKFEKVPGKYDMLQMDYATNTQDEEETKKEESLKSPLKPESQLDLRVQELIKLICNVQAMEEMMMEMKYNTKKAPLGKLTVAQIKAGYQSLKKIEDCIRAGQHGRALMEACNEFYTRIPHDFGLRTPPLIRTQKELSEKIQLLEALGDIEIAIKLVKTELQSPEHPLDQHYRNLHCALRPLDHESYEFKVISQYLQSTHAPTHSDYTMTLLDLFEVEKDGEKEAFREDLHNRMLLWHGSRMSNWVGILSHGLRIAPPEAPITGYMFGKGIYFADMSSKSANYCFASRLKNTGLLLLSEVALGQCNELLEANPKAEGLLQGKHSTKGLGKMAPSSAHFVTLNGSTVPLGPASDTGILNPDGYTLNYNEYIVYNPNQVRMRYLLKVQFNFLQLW
Sequence of PARP1 (P09874 whole entry): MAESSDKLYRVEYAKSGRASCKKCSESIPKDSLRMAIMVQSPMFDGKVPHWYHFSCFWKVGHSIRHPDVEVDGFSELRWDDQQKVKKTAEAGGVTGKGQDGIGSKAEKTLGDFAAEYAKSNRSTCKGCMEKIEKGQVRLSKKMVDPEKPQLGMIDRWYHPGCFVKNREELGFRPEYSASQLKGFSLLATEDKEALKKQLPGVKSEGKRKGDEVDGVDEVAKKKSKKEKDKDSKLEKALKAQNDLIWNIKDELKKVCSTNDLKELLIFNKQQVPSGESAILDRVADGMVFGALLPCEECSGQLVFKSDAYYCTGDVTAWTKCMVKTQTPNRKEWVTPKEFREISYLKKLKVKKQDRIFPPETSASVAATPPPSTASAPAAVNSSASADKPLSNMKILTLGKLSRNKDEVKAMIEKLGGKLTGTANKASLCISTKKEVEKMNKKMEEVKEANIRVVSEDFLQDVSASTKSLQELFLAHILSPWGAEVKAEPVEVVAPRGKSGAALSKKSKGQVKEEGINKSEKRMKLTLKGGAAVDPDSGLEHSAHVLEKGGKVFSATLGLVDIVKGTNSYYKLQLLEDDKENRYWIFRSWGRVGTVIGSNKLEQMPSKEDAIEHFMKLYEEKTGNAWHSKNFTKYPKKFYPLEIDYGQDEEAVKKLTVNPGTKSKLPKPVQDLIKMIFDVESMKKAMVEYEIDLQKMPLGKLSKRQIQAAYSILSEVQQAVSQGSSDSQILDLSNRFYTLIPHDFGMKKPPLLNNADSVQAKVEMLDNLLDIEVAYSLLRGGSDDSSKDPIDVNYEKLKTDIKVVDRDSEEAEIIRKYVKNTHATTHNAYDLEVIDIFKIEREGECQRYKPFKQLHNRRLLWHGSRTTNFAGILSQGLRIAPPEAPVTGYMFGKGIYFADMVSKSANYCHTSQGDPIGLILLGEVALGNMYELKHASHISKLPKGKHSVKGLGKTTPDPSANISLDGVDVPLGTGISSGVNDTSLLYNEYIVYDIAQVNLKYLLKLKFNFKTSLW

Row | Structure (SMILES) | IC50 (PARP1) [nM] | IC50 (PARP2) [nM] | IC50 (MDA-MB-436 cells) [nM]
1 | CCn1c(=O)[nH]c2c(F)c(CN3CCN(c4ccc(C(=O)NC)nc4F)CC3)ccc2c1=O [Example 24, 5-(4-((3-ethyl-8-fluoro-2,4-dioxo-1,2,3,4-tetrahydroquinazolin-7-yl)methyl)piperazin-1-yl)-6-fluoro-N-methylpicolinamide] | 10 to 100 | > 1000 | 10 to 100
2 | CCn1c(=O)[nH]c2cc(CN3CCN(c4ccc(C(=O)NC)nc4F)CC3)cc(F)c2c1=O [Example 25, 5-(4-((3-ethyl-5-fluoro-2,4-dioxo-1,2,3,4-tetrahydroquinazolin-7-yl)methyl)piperazin-1-yl)-6-fluoro-N-methylpicolinamide] | 1 to 10 | 100 to 1000 | 1 to 10
3 | CNC(=O)c1ccc(N2CCN(Cc3ccc4c(=O)n(C(C)C)c(=O)[nH]c4c3)CC2)c(F)n1 [Example 26, 5-(4-((3-isopropyl-2,4-dioxo-1,2,3,4-tetrahydroquinazolin-7-yl)methyl)piperazin-1-yl)-6-fluoro-N-methylpicolinamide] | 1 to 10 | > 1000 | 100 to 1000
4 | CCn1c(=O)[nH]c2cc(CN3CCN(c4cnc(C(=O)NC)nc4)CC3)ccc2c1=O [Example 27] | 1 to 10 | 100 to 1000 | > 1000
5 | CCn1c(=O)[nH]c2cc(CN3CCN(c4ccc(C(=O)NC)cn4)CC3)ccc2c1=O [Example 28, 6-(4-((3-ethyl-2,4-dioxo-1,2,3,4-tetrahydroquinazolin-7-yl)methyl)piperazin-1-yl)-N-methylnicotinamide] | 1 to 10 | 100 to 1000 | > 1000
6 | CCn1c(=O)[nH]c2cc(CN3CCN(c4ccc(C(=O)NC)nn4)CC3)ccc2c1=O [Example 29, 6-(4-((3-ethyl-2,4-dioxo-1,2,3,4-tetrahydroquinazolin-7-yl)methyl)piperazin-1-yl)-N-methylpyridazine-3-carboxamide] | 1 to 10 | 100 to 1000 | > 1000
7 | CCn1c(=O)[nH]c2cc(CN3CCN(c4ncc(C(=O)NC)cn4)CC3)ccc2c1=O [Example 30, 2-(4-((3-ethyl-2,4-dioxo-1,2,3,4-tetrahydroquinazolin-7-yl)methyl)piperazin-1-yl)-N-methylpyrimidine-5-carboxamide] | 10 to 100 | 10 to 100 | > 1000
8 | CCc1nc(C(=O)NC)ccc1N1CCN(Cc2ccc3c(=O)n(CC)c(=O)[nH]c3c2)CC1 [Example 31, 5-(4-((3-ethyl-2,4-dioxo-1,2,3,4-tetrahydroquinazolin-7-yl)methyl)piperazin-1-yl)-6-ethyl-N-methylpicolinamide] | ≤ 1 | > 1000 | 100 to 1000
9 | CCn1c(=O)[nH]c2cc(CN3CCN(c4ccc(C(N)=O)nc4F)CC3)ccc2c1=O [Example 32, 5-(4-((3-ethyl-2,4-dioxo-1,2,3,4-tetrahydroquinazolin-7-yl)methyl)piperazin-1-yl)-6-fluoropicolinamide] | 1 to 10 | 100 to 1000 | 10 to 100
10 | CCNC(=O)c1ccc(N2CCN(Cc3ccc4c(=O)n(CC)c(=O)[nH]c4c3)CC2)c(F)n1 [Example 33, 5-(4-((3-ethyl-2,4-dioxo-1,2,3,4-tetrahydroquinazolin-7-yl)methyl)piperazin-1-yl)-6-fluoro-N-ethylpicolinamide] | 1 to 10 | 100 to 1000 | 1 to 10
11 | CCn1c(=O)[nH]c2cc(CN3CCN(c4ccc(C(=O)NC(C)C)nc4F)CC3)ccc2c1=O [Example 34, 5-(4-((3-ethyl-2,4-dioxo-1,2,3,4-tetrahydroquinazolin-7-yl)methyl)piperazin-1-yl)-6-fluoro-N-isopropylpicolinamide] | 1 to 10 | 100 to 1000 | 10 to 100
12 | CNC(=O)c1ccc(NC(=O)c2cccc(-c3ccc4c(=O)n(C)c(=O)[nH]c4c3)c2)cn1 [Example 40, 5-(3-(3-methyl-2,4-dioxo-1,2,3,4-tetrahydroquinazolin-7-yl)benzamido)N-methylpicolinamide] | 1 to 10 | > 1000 | > 1000
